# Measured values reported in US7405223B2, “Treating allergic and inflammatory conditions” (priority 2000, dated 2008).
# Marks after values point to notes of the source that are not given here.
# What was measured:
# [1] = log-transformed values, 7.5 mg once daily
# [2] = test system: seasonal allergic rhinitis patients; assay: Double-blinded, randomized clinical trials in seasonal allergic rhinitis patients
# clinical [3] = conditions: both, human, plasma, po, 5 mg
# clinical [4] = conditions: human, plasma, po, 7.5 mg, Day 14, 7.5 mg once daily oral; for Cmax: mean (% CV); for half-life: t1/2, mean (% CV)
# [5] = Day 10, DL 5 mg once daily oral
# [6] = steady state, Day 10, DL 5 mg once daily oral
compound,measurement,setting,value
"Oc1cnc2c(c1)CCc1cc(Cl)ccc1C2=C1CCNCC1 [3-OH desloratadine, 3-hydroxydesloratadine]","t1/2, arithmetic mean",[5],36.0 h
same,"t1/2, harmonic mean",[5],34.0^c hr
same,"AUC(0-24 hr), arithmetic mean",[6],32.3 ng·h/mL
same,"AUC(0-24 hr), geometric mean",[6],30.4 ng·h/mL
same,"Cmax, arithmetic mean",[6],1.99 ng/mL
same,"Cmax, geometric mean",[6],1 .87 ng/mL
same,"Tmax, arithmetic mean",[6],4.76 h
same,"Tmax, median (geometric mean)",[6],5 h
Clc1ccc2c(c1)CCc1cccnc1C2=C1CCNCC1 [desloratadine],increase in t1/2 in elderly subjects >=65 years old compared with younger subjects,5 mg once daily for 10 days,~30%
same,AUC higher in female subjects compared with male subjects,[1],3%
same,Cmax higher in female subjects compared with male subjects,[1],10%
same,reduction of nasal symptoms versus placebo,[2]; 5 mg,significantly (p<0.01) more effective than placebo
same,total symptom scores,[2]; 5 mg once daily,significantly reduced
same,AM NOW total symptom score,"[2]; 24 hours after dose, entire 5 mg to 20 mg dosage range",Statistically significant (p<0.05) reductions were maintained for the full 24 hour dosing interval
same,"differences in effectiveness across subgroups defined by gender, age, or race",[2]; entire 5 mg to 20 mg dosage range,no significant differences
same,concentration at 8 day,clinical [3],1.31 ng/mL
same,concentration at 9 day,clinical [3],1.33 ng/mL
same,Cmax,"clinical [4]; female, Black women",6.73 ng/mL
same,Cmax,"clinical [4]; female, White women",5.46 ng/mL
same,half-life,"clinical [4]; female, Black women",35.4 h
same,half-life,"clinical [4]; female, White women",29.9 h
same,Cmax,"clinical [4]; male, White men",6.05 ng/mL
same,half-life,"clinical [4]; male, Black men",42 h
same,half-life,"clinical [4]; male, White men",36 h
